Test results published in paper PMC9623576, “Semisynthesis and Evaluation of Anti-Inflammatory Activity of the Cassane-Type Diterpenoid Taepeenin F and of Some Synthetic Intermediates” (Journal of Natural Products, 2022).
Read-outs that look alike come from different tables or passages of the source.

Columns and labels:
[1] = test system: RAW 264.7 monocyte/macrophage murine cells; assay: MTT growth inhibition on RAW 264.7 cells; format: cell-based; details: Mus musculus, RAW264.7, RAW 264.7, MTT; for IC20: 20% growth inhibition; for IC80: 80% growth inhibition
Procedure: (§1) A stock solution was frozen and stored at […]. Before the experiments, this solution was diluted in cell-culture medium to the adequate concentrations for each experiment. […] For nitrite assay, subcytotoxic concentrations (3/4IC50, 1/2IC50, and 1/4IC50), were used to ensure that the NO inhibitory potential was not due to a possible cytotoxic effect. The concentrations of 3/4IC50, 1/2IC50, and 1/4IC50 were used for the cell-cycle analysis. All experiments were measured and compared with control (untreated cells after 24, 48, or 72 h of treatment.)
In all experiments, monolayer cells were grown to 80–90% confluence, in sterile cell culture flasks. All cell lines used were purchased from the cell bank of the University of Granada, Spain.
The cytotoxicity assay was performed by the MTT (3-(4,5-dimethylthiazol-2-yl)-2,5-diphenyltetrazolium bromide) method.[21] […] All tested compounds were prepared in fresh growth medium. After 24 h, an additional 100 μL of medium with the corresponding concentrations of products (only medium in the control wells) was added to the corresponding wells, at various final concentrations (0–100 μg/mL). […] After 1.5 h of incubation, formazan was resuspended in 100 μL of DMSO, and each concentration was tested in triplicate.
Cytotoxicity experimental data were fitted to a sigmoidal function (y = ymax/(x/a)^−b) by nonlinear regression. […] Similar analyses were performed to obtain the IC50 of NO production. All data shown here are representative of at least two independent experiments performed in triplicate. All quantitative data were summarized as the mean ± standard deviation (SD).

[2] = test system: HT29 human colon adenocarcinoma cells; assay: MTT cancer cell proliferation assay, HT29; format: cell-based
Procedure: (§2) The five newly synthesized diterpenoids were evaluated for their cytotoxic effects against three selected tumor cell lines, B16-F10 murine melanoma cells, HT29 human colon adenocarcinoma cells, and HepG2 human hepatocarcinoma cells at increasing concentrations (0–100 μg/mL). After 72 h of treatment, cell viability was determined by an MTT assay, where the tetrazolium dye was transformed into formazan in the mitochondria of viable cells, its absorbance measured at 570 nm and expressed as a percentage with respect to untreated control cells (S3 Figure.). The concentrations required for 20, 50, and for 80% growth inhibition (IC20, IC50, and IC80) were also determined for each compound (Table 2).
as §1
(§3) Human colorectal adenocarcinoma cell line HT29 (ECACC no. 9172201; ATCC no. HTB-38), human hepatocarcinome cell line HepG2 (ECACC no. 85011430), mouse melanoma cells B16-F10 (ATCC no. CRL-6475), and murine monocyte/macrophage-like RAW 264.7 cell line (ATCC no, TIB-71) were cultured in DMEM (Dulbecco’s modified Eagle’s medium) supplemented with 2 mM glutamine, 10% heat-inactivated FCS (fetal calf serum), 10 000 units/mL of penicillin and 10 mg/mL of streptomycin, (for all cancer cell lines), 50 μg/mL of gentamicin (only for RAW 264.7 cell line), and incubated at 37 °C, in an atmosphere of 5% CO2 and 95% humidity. The culture media were changed every 48 h, and the confluent cultures were separated with a trypsin solution (0.25% EDTA). In all experiments, monolayer cells were grown to 80–90% confluence, in sterile cell culture flasks. All cell lines used were purchased from the cell bank of the University of Granada, Spain.
(§4) The cytotoxicity assay was performed by the MTT (3-(4,5-dimethylthiazol-2-yl)-2,5-diphenyltetrazolium bromide) method.[21] To quantify the cytotoxicity of compounds, the fresh and suspended cells were seeded in 96-well plates to a volume of 100 μL at 6.0 × 10^3 cells/mL for HT29 and RAW 264.7 cell lines, at 5.0 × 10^3 cells/mL for B16-F10 cells and 15.0 × 10^3 for Hep G2. Then, cells were incubated to adhere over 24 h at 37 °C with 5% CO2. All tested compounds were prepared in fresh growth medium. After 24 h, an additional 100 μL of medium with the corresponding concentrations of products (only medium in the control wells) was added to the corresponding wells, at various final concentrations (0–100 μg/mL). Finally, after 72 h of incubation at 37 °C with 5% CO2, the medium with the compounds were removed and 100 μL of MTT solution (0.5 mg/mL) in 50% of PBS 50% of medium was added to each well. After 1.5 h of incubation, formazan was resuspended in 100 μL of DMSO, and each concentration was tested in triplicate. Relative cell viability, with respect to untreated control cells, was measured by absorbance at 570 nm on an ELISA plate reader (Tecan Sunrise MR20-301, TECAN, Austria).
(§5) Cytotoxicity experimental data were fitted to a sigmoidal function (y = ymax/(x/a)^−b) by nonlinear regression. […] These analyses were performed using SigmaPlot 12.5 software. Similar analyses were performed to obtain the IC50 of NO production. All data shown here are representative of at least two independent experiments performed in triplicate. All quantitative data were summarized as the mean ± standard deviation (SD).

[3] = test system: HepG2 human hepatocarcinoma cells; assay: MTT cancer cell proliferation assay, HepG2; format: cell-based; details: HepG2, 72 h
Procedure: as §2, §1, §3, §4, §5

[4] = test system: NO production in LPS-activated RAW 264.7 macrophage murine cells; assay: Inhibition of NO (nitrite) release, Griess reaction; format: cell-based
Procedure: The concentrations of nitrites were determined by the Griess reaction.
as §1
Nitrites production was analyzed through the Griess reaction. This nitrite concentration was used as an indicator of NO production.[35] Briefly, RAW 264.7 cells were plated at 6 × 10^3 cells/well in 24-well cell culture plates and supplemented with 10 μg/mL of lipopolysaccharide (LPS). […] The supernatants were collected at 48 and 72 h, to determine their nitrite concentrations and/or stored at −80 °C for further use.
The Griess reaction was performed taking 150 μL of supernatant test samples or sodium nitrite standard (0–120 μM) and mixed with 25 μL of Griess reagent A (0.1% N,N-(1-naphthyl) ethylenediaminedihydrochloride) and 25 μL of Griess reagent B (1% sulfanilamide in 5% of phosphoric acid), in a 96-well plate. After 15 min of incubation at room temperature, the absorbance was measured at 540 nm in an ELISA plate reader (Tecan Sunrise MR20–301, TECAN, Austria). The absorbance was referred to a nitrite standard curve to determine the concentration of nitrite in the supernatant of each experimental sample. The percentage of NO production was determined, assigning 100% at the increase between negative control (untreated cells) and positive control (cells only treated with 10 μg/mL of LPS).

[5] = test system: B16-F10 murine melanoma cells; assay: MTT cancer cell proliferation assay, B16-F10; format: cell-based; details: B16-F10, 72 h
Procedure: as §2, §1, §3, §4, §5

[6] = test system: NO release; details: read-out: IC50 of NO inhibitory effect; cited from earlier work
[7] = test system: MCF-7 cancer cell line; set-up: method as in PMID 23806110; details: MCF-7 cancer cell line ref 10; cited from earlier work
[8] = test system: HepG-2 cancer cell line; set-up: method as in PMID 23806110; details: HepG-2 cancer cell line ref 10; cited from earlier work
[9] = Homo sapiens, HT-29, HT29, 72 h, MTT
[10] = Homo sapiens, HT-29, HT29, 72 h, MTT, read-out: IC20
[11] = Homo sapiens, MTT, read-out: IC50
[12] = Homo sapiens, MTT, read-out: IC20
[13] = Mus musculus, MTT, read-out: IC50
[14] = Mus musculus, MTT, read-out: IC20

Molecule	IC20 [1]	IC80 [1]	inhibition of NO release ([4]; 48 h, 1/2IC50 concentration)	inhibition of NO release ([4]; 48 h, 3/4IC50 concentration)	inhibition of NO release ([4]; 72 h, 3/4IC50 concentration)	IC50 [1]	IC80 [2, 9]	IC20 [2, 10]	IC50 ([3]; MTT, read-out: IC50)	IC50 [3, 11]	IC80 ([3]; Homo sapiens, MTT)	IC20 [3, 12]	IC50 ([5]; MTT, read-out: IC50)	IC50 [5, 13]	IC80 ([5]; Mus musculus, MTT)	IC20 [5, 14]	also measured
COC(=O)[C@]1(C)CCC[C@]2(C)c3cc4c(c(C)c3CC[C@@H]12)CC(=O)O4 [Compound 6, (4R,4aR,11bS)-Methyl 4,7,11b-trimethyl-9-oxo-1,2,3,4,4a,5,6,8,9,11b-decahydrophenanthro[3,2-b]furan-4-carboxylate]	111 ± 24 µM	254.7 ± 1.48 µM	77.80%	88.33%	98%												IC50 ([2]; HT29, 72 h, MTT): > 100 µM; IC50 ([2]; HT29, 72 h, MTT, listed as Taepeenin F (6)): 391 ± 39.5 µM; IC20 ([2]; Homo sapiens, HT-29, 72 h): 124.2 ± 1.11 µM; IC50 ([3]; MTT): > 100 µM; IC50 ([3]; MTT, listed as Taepeenin F (6)): 237 ± 9.69 µM; IC20 ([3]; Homo sapiens): 112 ± 22 µM; IC50 ([5]; MTT): > 100 µM; IC50 ([5]; MTT, listed as Taepeenin F (6)): 257 ± 24 µM; IC20 ([5]; Mus musculus): 234 ± 4.12 µM
COC(=O)[C@]1(C)CCC[C@]2(C)c3cc(O)c(C(C)C)c(C)c3CC[C@@H]12 [Compound 17, (1R,4aS,10aR)-Methyl 6-hydroxy-7-isopropyl-1,4a,8-trimethyl-1,2,3,4,4a,9,10,10a-octahydrophenanthrene-1-carboxylate]	27.8 ± 8.38 µM	247 ± 6.3 µM	86.5%	89.70%	99%	129 ± 7.06 µM	311 ± 8.32 µM	122 ± 24.2 µM	137 ± 13.9 µM	> 85.6 µM	274 ± 41.2 µM	32.6 ± 3.41 µM	133 ± 8.17 µM	> 85.6 µM	259.3 ± 1.35 µM	33.3 ± 5.94 µM	
COC(=O)[C@]1(C)CCC[C@]2(C)c3cc(O)c(CO)c(C)c3CC[C@@H]12 [Compound 22, (1R,4aS,10aR)-Methyl 6-hydroxy-7-(hydroxymethyl)-1,4a,8-trimethyl-1,2,3,4,4a,9,10,10a-octahydrophenanthrene-1-carboxylate]	92.1 ± 1.13 µM	114.2 ± 0.17 µM	70.94%	86.96%	96%	101.8 ± 0.52 µM	114 ± 7.35 µM	67.5 ± 4.61 µM	125 ± 2.36 µM	> 85.6 µM	141 ± 6.51 µM	110.1 ± 0.84 µM	102 ± 4.36 µM	> 85.6 µM	122 ± 4.22 µM	85.5 ± 6.16 µM	IC50 ([2]; HT29, 72 h, MTT, read-out: IC50): 85.6 ± 4.99 µM; IC50 ([2]; Homo sapiens, HT-29, 72 h, HT29, 72 h, MTT, read-out: IC50): > 85.6 µM; melting point: 98 to 101 °C
caesalmin A																	IC50 [6]: ~25.4 µM
caesalpin A [Compound 8]																	IC50 [7]: 2.1 µM; IC50 [8]: 4.7 µM
